# Data taken from US20220409643A1, “ROR Gamma T Inhibitors and Topical Uses Thereof” (Dermira, inc., priority 2019, published 2022).
# Test system: IL17A
# Assay: skin Resident Immune Cell Assay (sRICA), Th17 model, IL17A protein in media
# Format: cell-based
# Settings: 100 uM solution in 1% DMSO/OD applied topically to human skin; media collected 24 hours after Th17 activation
# Experimental: A skin Resident Immune Cell Assay (sRICA) was used to test compounds for reduction of IL-17A protein upregulation in the Th17 sRICA model. In this model, human surgical skin waste was cultured in a transwell system, with the dermis in contact with cell culture media and the stratum corneum exposed to air. To perform the assay, each human skin sample was defatted and dermatomed to 750μm. Next, 8 mm punch biopsies were obtained and placed in a membrane transwell. The transwells were inserted into culture wells with complete media, and a cocktail of cytokines and antibodies were added to promote skin resident immune cell polarization.
# RORγt inhibitors were prepared as a 100 uM solution in 1% DMSO/OD. […] of the prepared topical solution was applied to sRICA wells prepared for topical drug evaluation. Drugs were allowed to penetrate the skin overnight, for up to 24 hours prior to Th17 activation. Media was collected 24 hours after Th17 activation for IL17A protein assessment. IL17A protein was evaluated using the Quanterix IL17A detection kit on the SiMoA platform (via CRO Translational Biosciences). There was significant upregulation of IL17A with Th17 activation. Each study was normalized to the % max of IL17A production (i.e. the average IL17A concentration of Th17 activated skin alone) was set to 100%, all other values (untreated no activation and treated samples) were obtained as a percentage of this. […]
row,SMILES,inhibition at 100 µM
1,COCc1ccc([C@@H](NC(=O)[C@@H]2CNC(=O)C2)C(=O)Nc2ccc(C(C)(C)C)c(F)c2)cc1 [(3S)-N-((1R)-2-((4-tert-butyl-3-fluorophenyl)amino)-1-(4-(methoxymethyl)phenyl)-2-oxoethyl)-5-oxopyrrolidine-3-carboxamide],38.7%
2,"CCOCC(C)(C)c1c(F)cc(NC(=O)[C@H]2c3ccc(OC)cc3CCN2C(=O)Cc2cc(O)no2)cc1F [(1R)-N-(4-(1-ethoxy-2-methylpropan-2-yl)-3,5-difluorophenyl)-2-((3-hydroxy-1,2-oxazol-5-yl)acetyl)-6-methoxy-1,2,3,4-tetrahydro-isoquinoline-1-carboxamide]",54.9%
3,COCc1ccc([C@@H](NC(=O)[C@H]2CNC(=O)C2)C(=O)Nc2ccc(C(C)(C)C)c(F)c2)cc1 [(3R)-N-((1R)-2-((4-tert-butyl-3-fluorophenyl)amino)-1-(4-(methoxymethyl)phenyl)-2-oxoethyl)-5-oxopyrrolidine-3-carboxamide],74.1%
4,"COc1ccc2c(c1)CCN(C(=O)Cc1cc(O)no1)[C@H]2C(=O)Nc1cc(F)c(C(C)(C)C)c(F)c1 [(1R)-N-(4-tert-butyl-3,5-difluorophenyl)-2-((3-hydroxy-1,2-oxazol-5-yl)acetyl)-6-methoxy-1,2,3,4-tetrahydroisoquinoline-1-carboxamide]",-10.9%
5,"COc1ccc2c(c1)CCN(C(=O)c1cc(O)no1)[C@H]2C(=O)Nc1cc(F)c2c(c1)CCC2(C)C (stereo in doubt) [N-(7-fluoro-1,1-dimethyl-2,3-dihydro-1H-inden-5-yl)-2-((3-hydroxy-1,2-oxazol-5-yl)carbonyl)-6-methoxy-1,2,3,4-tetrahydroisoquinoline-1-carboxamide]",42.3%
6,"CCOc1ccc2c(c1)CCN(C(=O)Cc1cc(O)no1)[C@H]2C(=O)Nc1cc(F)c2c(c1)CCC2(C)C [(1R)-6-ethoxy-N-(7-fluoro-1,1-dimethyl-2,3-dihydro-1H-inden-5-yl)-2-((3-hydroxy-1,2-oxazol-5-yl)acetyl)-1,2,3,4-tetrahydroisoquinoline-1-carboxamide]",67.9%
7,"COCc1ccc([C@@H](NC(=O)[C@H]2CNC(=O)C2)C(=O)Nc2cc(F)c(C(C)(C)C)c(F)c2)cc1 [(3R)-N-((1R)-2-((4-tert-butyl-3,5-difluorophenyl)amino)-1-(4-(methoxymethyl)phenyl)-2-oxoethyl)-5-oxopyrrolidine-3-carboxamide]",63.1%
8,"COCC(C)(C)c1c(F)cc(NC(=O)[C@H]2c3ccc(OC)cc3CCN2C(=O)c2cc(O)no2)cc1F [(1R)-N-(3,5-difluoro-4-(1-methoxy-2-methylpropan-2-yl)phenyl)-2-((3-hydroxy-1,2-oxazol-5-yl)carbonyl)-6-methoxy-1,2,3,4-tetrahydroisoquinoline-1-carboxamide]",56.2%
9,"COCC(C)(C)c1c(F)cc(NC(=O)[C@H]2c3ccc(OC)cc3CCN2C(=O)Cc2cc(O)no2)cc1F [(1R)-N-(3,5-difluoro-4-(1-methoxy-2-methylpropan-2-yl)phenyl)-6-methoxy-2-((3-hydroxy-1,2-oxazol-5-yl)acetyl)-1,2,3,4-tetrahydro-isoquinoline-1-carboxamide]",46.3%
10,"COc1ccc2c(n1)CCN(C(=O)c1cc(O)no1)[C@H]2C(=O)Nc1cc(F)c2c(c1)CCC2(C)C [(5R)-N-(7-fluoro-1,1-dimethyl-2,3-dihydro-1H-inden-5-yl)-6-((3-hydroxy-1,2-oxazol-5-yl)carbonyl)-2-methoxy-5,6,7,8-tetrahydro-1,6-naphthyridine-5-carboxamide]",46.9%

# Same assay, conditions: Homo sapiens, 24 h, 100 uM solution in 1% DMSO/OD applied topically to human skin; media collected 24 hours after Th17 activation
row,SMILES,inhibition at 100 µM
1,"COc1ccc2c(n1)CCN(C(=O)Cc1cc(O)no1)[C@H]2C(=O)Nc1ccc([Si](C)(C)C)c(F)c1 [(5R)-N-(3-fluoro-4-(trimethylsilyl)phenyl)-6-((3-hydroxy-1,2-oxazol-5-yl)acetyl)-2-methoxy-5,6,7,8-tetrahydro-1,6-naphthyridine-5-carboxamide]",22.2%
2,"COCc1ccc2c(c1)CCN(C(=O)c1cc(O)no1)[C@H]2C(=O)Nc1ccc([Si](C)(C)C)c(F)c1 [(1R)-N-(3-fluoro-4-(trimethylsilyl)phenyl)-2-((3-hydroxy-1,2-oxazol-5-yl)carbonyl)-6-methoxymethyl-1,2,3,4-tetrahydroisoquinoline-1-carboxamide]",62.2%
3,"CC[Si](C)(C)c1c(F)cc(NC(=O)[C@H]2c3ccc(COC)nc3CCN2C(=O)c2cc(O)no2)cc1F [(5R)-N-(4-(ethyl(dimethyl)silyl)-3,5-difluorophenyl)-6-((3-hydroxy-1,2-oxazol-5-yl)carbonyl)-2-(methoxymethyl)-5,6,7,8-tetrahydro-1,6-naphthyridine-5-carboxamide]",48.5%
4,"COCc1ccc2c(c1)CCN(C(=O)Cc1cc(O)no1)[C@H]2C(=O)Nc1ccc([Si](C)(C)C)c(F)c1 [(1R)-N-(3-fluoro-4-(trimethylsilyl)phenyl)-2-((3-hydroxy-1,2-oxazol-5-yl)acetyl)-6-(methoxymethyl)-1,2,3,4-tetrahydroisoquinoline-1-carboxamide]",69.9%
5,"CC[Si](C)(C)c1c(F)cc(NC(=O)[C@H]2c3ccc(OC)nc3CCN2C(=O)CCCC(=O)O)cc1F [5-((5R)-5-((4-(ethyl(dimethyl)silyl)-3,5-difluorophenyl)carbamoyl)-2-methoxy-7,8-dihydro-1,6-naphthyridin-6(5H)-yl)-5-oxopentanoic acid]",41.9%
6,CCn1c2ccccc2c2cc(C(=O)NCC(C)CC(=O)Nc3ccc(C#N)c(Cl)c3)ccc21 (stereo not drawn) [N-{4-[(3-chloro-4-cyanophenyl)amino]-2-methyl-4-oxobutyl}-9-ethyl-9H-carbazole-3-carboxamide],24.5%
7,"COCc1ccc([C@@H](NC(=O)CN2C(=O)CNC2=O)C(=O)Nc2ccc([Si](C)(C)C)c(F)c2)cc1 [(2R)-2-(((2,5-dioxoimidazolidin-1-yl)acetyl)amino)-N-(3-fluoro-4-(trimethylsilyl)phenyl)-2-(4-(methoxymethyl)phenyl)acetamide]",36.3%
8,COCc1ccc([C@@H](NC(=O)Cn2c(=O)cc[nH]c2=O)C(=O)Nc2ccc([Si](C)(C)C)c(F)c2)cc1,40.7%
9,"COc1ccc2c(c1)CCN(C(=O)Cc1cc(O)no1)[C@H]2C(=O)Nc1cc(F)c([Si](C)(C)C)c(F)c1 [(1R)-N-(3,5-difluoro-4-(trimethylsilyl)phenyl)-2-((3-hydroxy-1,2-oxazol-5-yl)acetyl)-6-methoxy-1,2,3,4-tetrahydroisoquinoline-1-carboxamide]",49.2%
10,COc1ccc([C@@H](NC(=O)N2CC[C@@H](O)C2)C(=O)Nc2ccc([Si](C)(C)C)c(F)c2)cc1 [(3R)-N-((1R)-2-((3-fluoro-4-(trimethylsilyl)phenyl)amino)-1-(4-methoxyphenyl)-2-oxoethyl)-3-hydroxypyrrolidine-1-carboxamide],46.9%
11,"COCc1ccc([C@@H](NC(=O)[C@H]2CNC(=O)C2)C(=O)Nc2cc(F)c([Si](C)(C)C)c(F)c2)cc1 [(3R)-N-((1R)-2-((3,5-difluoro-4-(trimethylsilyl)phenyl)amino)-1-(4-(methoxymethyl)phenyl)-2-oxoethyl)-5-oxopyrrolidine-3-carboxamide]",63%
12,"COCc1ccc([C@@H](NC(=O)Cc2nnc(C)o2)C(=O)Nc2cc(F)c([Si](C)(C)C)cc2F)cc1 [(2R)-N-(2,5-difluoro-4-(trimethylsilyl)phenyl)-2-(4-(methoxymethyl)phenyl)-2-(((5-methyl-1,3,4-oxadiazol-2-yl)acetyl)amino)acetamide]",75.7%
13,COCc1ccc([C@@H](NC(=O)C2CCOCC2)C(=O)Nc2ccc([Si](C)(C)C)c(F)c2)cc1 [N-((1R)-2-((3-fluoro-4-(trimethylsilyl)phenyl)amino)-1-(4-(methoxymethyl)phenyl)-2-oxoethyl)tetrahydro-2H-pyran-4-carboxamide],-20.1%
14,"COCc1ccc2c(c1)CCN(C(=O)CCCC(=O)O)[C@H]2C(=O)Nc1ccc([Si](C)(C)C)c(F)c1 [5-((1R)-1-((3-fluoro-4-(trimethylsilyl)phenyl)carbamoyl)-6-(methoxymethyl)-3,4-dihydroisoquinolin-2(1H)-yl)-5-oxopentanoic acid]",51.1%
15,"COc1ccc2c(c1)OCCN(C(=O)Cc1cc(O)no1)[C@H]2C(=O)Nc1cc(F)c([Si](C)(C)C)c(F)c1 [(5R)-N-(3,5-difluoro-4-(trimethylsilyl)phenyl)-4-((3-hydroxy-1,2-oxazol-5-yl)acetyl)-8-methoxy-2,3,4,5-tetrahydro-1,4-benzoxazepine-5-carboxamide]",58.1%
16,"COCc1ccc([C@@H](NC(=O)Cn2nc(C)ccc2=O)C(=O)Nc2cc(F)c([Si](C)(C)C)c(F)c2)cc1 [(2R)-N-(3,5-difluoro-4-(trimethylsilyl)phenyl)-2-(4-(methoxymethyl)phenyl)-2-(((3-methyl-6-oxopyridazin-1(6H)-yl)acetyl)amino)acetamide]",38.7%
17,"COc1ccc2c(n1)CCN(C(=O)Cc1cc(O)no1)[C@H]2C(=O)Nc1cc(F)c([Si](C)(C)C)c(F)c1 [(5R)-N-(3,5-difluoro-4-(trimethylsilyl)phenyl)-6-((3-hydroxy-1,2-oxazol-5-yl)acetyl)-2-methoxy-5,6,7,8-tetrahydro-1,6-naphthyridine-5-carboxamide]",49.4%
